This assay deals with Rattus norvegicus. Briefly: Antidiabetic activity in STZ-diabetic rat assessed as lowering of plasma glucose level at 1 mM/kg. In kind it is functional.

The values that follow come from ChEMBL document CHEMBL1159384, “Antidiabetic dimeric guianolides and a lignan glycoside from Lactuca indica” (2003).

As to `COc1cc([C@H]2O[C@@H](O)[C@@H]3[C@H]2[C@H](O[C@@H]2O[C@H](CO)[C@@H](O)[C@H](O)[C@H]2O)O[C@@H]3c2ccc(O)c(OC)c2)ccc1O` [LACTUCASIDE], the Activity is recorded as -17.95%. Consider `C=C1C(=O)O[C@@H]2[C@H]3C(COC(=O)Cc4ccc(O)cc4)=CC(=O)C3=C(C)C[C@H](O[C@H]3CC(C)=C4C(=O)C=C(COC(=O)Cc5ccc(O)cc5)[C@@H]4[C@H]4OC(=O)[C@@H](C)[C@@H]43)[C@@H]12` [LACTUCAIN C], for which the Activity is reported as -22.74%.
